Reference: ChEMBL document CHEMBL3739291, “3-AminooxazolidinoneAHL analogs as hydrolytically-stable quorum sensingagonists in Gram-negative bacteria” (Medchemcomm, 2015)
Activity calls are given as the source filed them. The rule behind the calls is not given here.

Columns and labels:
[1] = biological target: T1, CviR transcriptional regulator (Chromobacterium violaceum) (UniProt D3W065); experiment: Agonist activity at Chromobacterium violaceum CV026 CviR assessed as production of violacein at 20 uM preincubated at 32 degC for day 1 followed by further incubation at 25 degC on day 2 by agar plate assay
T1 sequence (whole entry): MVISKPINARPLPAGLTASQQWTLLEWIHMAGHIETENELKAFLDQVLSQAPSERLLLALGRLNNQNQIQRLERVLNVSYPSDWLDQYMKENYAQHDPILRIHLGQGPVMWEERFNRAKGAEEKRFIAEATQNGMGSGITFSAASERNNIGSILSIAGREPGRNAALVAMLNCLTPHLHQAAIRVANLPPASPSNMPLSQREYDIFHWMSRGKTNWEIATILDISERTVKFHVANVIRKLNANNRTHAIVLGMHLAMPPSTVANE

[2] = biological target: T1, CviR transcriptional regulator (Chromobacterium violaceum); experiment: Antagonist activity at Chromobacterium violaceum CV026 CviR assessed as inhibition of C4-HSL-induced violacein production preincubated at 32 degC for day 1 followed by further incubation at 25 degC on day 2 by agar plate assay
[3] = Stability in 180 mM Tris-HCl buffer at pH 8 measured for 3 hrs by HPLC analysis; format: physicochemical; conditions: pH 8, 3 h
[4] = Agonist activity at Escherichia coli JM109 LasR assessed as induction of bioluminescence after 8 hrs by luminometric analysis
[5] = biological target: T1, CviR transcriptional regulator (Chromobacterium violaceum); experiment: Antagonist activity at Chromobacterium violaceum CV026 CviR assessed as inhibition of C4-HSL-induced violacein production at 2 uM preincubated at 32 degC for day 1 followed by further incubation at 25 degC on day 2 by agar plate assay

| inhibition [2] | Stability [3] | EC50 [4] | inhibition [5] | Compound | Activity [1] |
| --- | --- | --- | --- | --- | --- |
| – | – | – | – | CCCC(=O)N[C@H]1CCOC1=O | Active |
| Active | Stable | 2.1 nM | – | CCCCCCCCCC(=O)CC(=O)NN1CCOC1=O | – |
| – | Stable | 1.5 nM | Active | CCCCCCCCCC(=O)CC(=O)N[C@H]1CCOC1=O | – |
| – | – | – | – | CCCC(=O)NN1CCOC1=O | Active |
